Values after ≈ are worked out from the molar mass of the structure shown.

This experiment deals with Mycobacterium tuberculosis. In words: Antituberculosis activity against Mycobacterium tuberculosis H37Rv. Format: functional.
The term IC90 denotes the concentration at which the effect reaches the 90% level. The compound `O=C(Nc1nc(-c2ccccc2)c(-c2ccccc2)o1)c1ccc(F)cc1` registered an IC90 of less than 0.1 µg/mL. As a reminder, the MIC is the least concentration at which growth counts as inhibited. The compound `C[C@H]1COC2(CCN(c3nc(=O)c4cc(C(F)(F)F)cc([N+](=O)[O-])c4s3)CC2)O1` [BTZ-043] returned an MIC of 0.001 µg/mL (≈ 0.00232 µM).

Compound `Cc1ccc2oc(-c3cc(NC(=O)Cc4ccccc4)ccc3Cl)nc2c1` came in with an IC90 of less than 0.1 µg/mL. In the case of `O=c1c2ccccc2nc(/C=C/c2ccc([N+](=O)[O-])o2)n1CCCO`, the IC90 was less than 0.1 µg/mL. `O=C(Nc1ccc(F)c(Cl)c1)c1ccc([N+](=O)[O-])o1` came in with a concentration for an effect of 90% (IC90) of less than 0.1 µg/mL.

`CC(C)(C)c1cc(Cl)c(O)c(NC(=S)NC(=O)c2ccc3ccccc3c2)c1` registered an IC90 of less than 0.1 µg/mL. As for `O=S1(=O)C=C(Sc2nc3ccccc3s2)c2ccccc21`, the IC90 is less than 0.1 µg/mL.

The compound `COC(=O)COc1ccc(NC(=O)COc2ccc(C)cc2C)cc1` had an IC90 of less than 0.1 µg/mL. In turn, `COC(=O)c1nc(N)sc1Cc1ccccc1` displayed an MIC of 0.06 µg/mL (≈ 0.242 µM). In turn, `Cc1cccc(Nc2nc(-c3ccccn3)cs2)n1` came in with an IC90 of less than 0.1 µg/mL.

In the case of `Cc1cc([N+](=O)[O-])ccc1NC(=O)c1ccc(-c2ccccc2)cc1`, the IC90 is less than 0.1 µg/mL. In turn, `CC(C)(C)c1ccc(C(=O)Nc2nc3ccccc3[nH]2)cc1` returned a 90% effect concentration (IC90) of less than 0.1 µg/mL. On the same count and under the same terms, the figure for `O=C(Nc1ccc(F)c(Cl)c1)C12CC3CC(CC(C3)C1)C2` is less than 0.1 µg/mL; for `Cc1cccnc1Nc1nc(-c2ccccn2)cs1` it is less than 0.1 µg/mL.

`CC1(CNC(=O)Nc2ccc(C(F)(F)F)cc2)CC2CCC1C2` (stereo not given) showed an IC90 of less than 0.1 µg/mL. On the same count and under the same terms, under `CSc1ncc(C(=O)Nc2cccc(C(F)(F)F)c2)cn1` stands less than 0.1 µg/mL; under `Clc1ccc(Nc2nc(-c3ccccn3)cs2)nc1`, less than 0.1 µg/mL. As to `Cc1c(Cl)cccc1NC(=O)OC(C)(OC1CCCCC1)C(=O)O` (stereo not given), the IC90 is less than 0.1 µg/mL.

`Cc1sc(N)nc1C(=O)O`: the MIC was determined as 0.06 µg/mL (≈ 0.379 µM). Same read-out and setting: under `C[C@@H]1COC2(CCN(c3nc(=O)c4cc(C(F)(F)F)cc([N+](=O)[O-])c4s3)CC2)O1` stands 0.001 µg/mL (≈ 0.00232 µM).

The compound `COc1ccc(CCNC(=O)CCc2ncc(C(C)(C)C)s2)cc1` had an IC90 of less than 0.1 µg/mL. `Cc1ccc(C(=O)Nc2ccc([N+](=O)[O-])cc2C)cc1I` returned an IC90 of less than 0.1 µg/mL. Turning to `CSc1ncnc2c1ncn2CC(=O)Nc1ccc(C)c(C)c1`, the IC90 is less than 0.1 µg/mL.

The compound `FC(F)(F)c1ccccc1Nc1nc(-c2ccccn2)cs1` showed an IC90 of less than 0.1 µg/mL. In turn, `O=C(CC12CC3CC(CC(C3)C1)C2)Nc1ccc2ccccc2c1` gave an IC90 of less than 0.1 µg/mL.

The values above are taken from ChEMBL document CHEMBL1821680, “Current status and research strategies in tuberculosis drug development” (2011).
